Entries after “also recorded” stand apart in the source; their conditions may differ.
Key:
mice = test: Neurological symptoms / clinical phenotype in mice given peptide; format: in vivo, mouse; conditions: for neurological symptoms (paralysis from spinal cord inflammation, visual impairment from optic nerve inflammation): mice administered the peptide; for clinical phenotype / autoimmune neurological disease after immunization: immunized AQP4 null mice
T cells = test: T cell proliferation assay (3H-thymidine incorporation) with spleen cells of immunized mice; format: cell-based, mouse; conditions: for T cell response against the peptide: T cells from AQP4 null mice immunized with AQP4 loop peptides
[1] = system: IL-17 and interferon-gamma (IFN-γ) cytokine-producing cells; test: ELISPOT assay of cytokine-producing cells; format: cell-based, mouse
Description: ELISPOT assay was used to determine the frequency of cytokine-producing cells in polarized and unpolarized cell cultures. The day before cells were to be harvested from immunized AQP4 null mice, the wells of an immobilon P-bottom 96-well plates (Multiscreen®HTS, 0.45 μm pore size; EMB Millipore, USA) were pre-wet with 35% ethanol for 30 seconds, washed three times with coating buffer, and coated with 50 μl of a 1:250 dilution of capture antibody, anti-IL17 (Th17), provided with ELISPOT Ready-Set-Go kits (eBioscience). Plates were covered and incubated overnight at 4° C. Wells were then washed twice with coating buffer and once with complete media; plates were stored in the incubator until cells were prepared. Spleen and lymph node cells were prepared as described above and prepared with and without polarizing conditions. Harvested cells were 2-fold serially diluted in media containing 3×10^7 irradiated splenocytes (irradiated with 3,500 rads) as antigen-presenting cells (APCs); APCs mixed 12:1 with 1.25×10^5 lymph node cells per well yielded the most well-defined spots. After overnight in culture, wells were washed (TBS+0.05% Tween®-20). Detection antibody was diluted 1:250 in diluents provided in the kit and 50 μl applied to each well for 2 hours at RT. After washing, streptavidin-alkaline phosphatase was added to each well (1:2500; Sigma) for 45 minutes. After further washing, signal was developed with development solution containing BCIP and NBT (i.e. 150 mM Tris-HCl, 5 mM MgCl2, 100 mM NaCl, pH9.5 supplemented with 4 mM levamisole (Sigma), 0.15 mg/ml 5-bromo-4-chloro-3-indolyl-phosphate, and 0.36 mg/ml 4-nitro blue tetrazolium chloride (Roche) for 10 minutes at room temperature in the dark. Reaction was stopped by washing with PBS then distilled H2O before air drying. Spots were imaged with an Immunospot Series 3 Analyzer (Cellular Technology, Ltd.) and counted using Image J and the “find Maxima” function. Results are expressed as the mean of triplicate values (±standard error of the mean, SEM) adjusted to per 10^6 cells per well. Student's t-test was performed on data; p<0.05 was considered statistically significant.

AQP4 null mice = test: Antibody production against AQP4 extracellular loop peptides after immunization; format: in vivo, mouse; conditions: AQP4 null mice immunized with the peptides
[2] = after polarization to Th17 phenotype, exposed to peptide
[3] = after polarization to Th17 phenotype, exposed to peptide, listed as AQP4135-53
[4] = unpolarized cell culture exposed to peptide, versus no stimulation
[5] = unpolarized cell culture exposed to peptide, versus no stimulation, listed as AQP4135-53

GILYLVTPPSVVGGLGVTMV [SEQ ID NO: 9, reference compound]
neurological symptoms (paralysis from spinal cord inflammation, visual impairment from optic nerve inflammation) (mice): no such neurological symptoms

MOG peptide 35-55: myelin-oligodendrocyte glycoprotein (MOG) peptide 35-55 (MEVGWYRSPFSRVVHLYRNGK; UniProt Q61885 63-83, looked up, fragment) [reference compound]
T cell proliferative activity (incorporation of tritiated-thymidine) (T cells; T cells from control wildtype mice (wt-MOG) immunized with MOG peptide 35-55): showed proliferative activity

LVTPPSVVGGLGVTMVHGN [SEQ ID NO: 8]
clinical phenotype / autoimmune neurological disease after immunization (mice): did not develop autoimmune neurological disease
neurological symptoms (paralysis from spinal cord inflammation, visual impairment from optic nerve inflammation) (mice): development of phenotypes
number of IFN-γ producing cells [1, 2]: barely detectable
number of IL-17 producing cells [1, 2]: doubled
number of IFN-γ producing cells [1, 3]: nearly undetectable
number of IL-17 producing cells [1, 3]: almost doubled
number of IFN-γ producing cells [1, 4]: significant number
number of IL-17 producing cells [1, 4]: significant number
number of IFN-γ producing cells [1, 5]: significant levels
number of IL-17 producing cells [1, 5]: significant levels
T cell response against the peptide (T cells): remarkable T cell response; also recorded: robust T cell response; also recorded: robust reaction
antibody production against the loop peptide (AQP4 null mice): no evidence of antibody production

GTEKPLPV (listed as Homo sapiens) [loop A, AQP4 extracellular loop A peptide (human 56-69 used)]
antibody production against the loop peptide (AQP4 null mice): no evidence of antibody production

TPPSVVGGLGVTMVHGNLTAG (listed as Homo sapiens) [loop C, peptide corresponding to the second extracellular loop of AQP4]
clinical phenotype / autoimmune neurological disease after immunization (mice): no clinical phenotype
T cell response against the peptide (T cells): robust T cell response
T cell response against the peptide (T cells; listed as loop C peptide): robust T cell response; also recorded: stimulated a T cell response
antibody production against the loop peptide (AQP4 null mice): No evidence of antibody production

GNWENH (listed as Homo sapiens) [loop E, AQP4 extracellular loop E peptide (human 212-30 used)]
antibody production against the loop peptide (AQP4 null mice): no evidence of antibody production
